# Structures can show the parent of a compound that is named as a salt. Where two headings read alike, the source gives them in different places.
# Legend:
# HCT-8/MDR1 cells [1] = assay: MTS cytotoxicity (drug tolerance) assay; conditions: for TC50: MDR1 cells, no drug selection, MTS assay
# HCT-8/NC(NTZ) cells = assay: MTS cytotoxicity (drug tolerance) assay
# Protocol: (§1) Host cell drug tolerance to specified inhibitors was evaluated by 3-(4,5-dimethylthiazol-2-yl)-5-(3-carboxymethoxyphenyl)-2-(4-sulfophenyl)-2H-tetrazolium (MTS) assay. WT and transgenic host cells were seeded in 96-well plates (10,000 cells/well) and cultured for 24 h, followed by the addition of specified compounds at serially diluted concentrations and continued culture for 41 h. After 3 washes with serum-free medium, MTS solution (Saint-Bio, Shanghai, China) was added into the plates (20 μL/well) and incubated at 37°C for 2 h. Optical density at 490 nm (OD490) was measured using a Synergy LX multi-mode reader (BioTek, Winooski, VT). Drug tolerance was indicated by half-maximal cytotoxic concentrations (TC50 values) calculated by nonlinear regression using 4PL model. Selectivity index (SI) for each compound was determined by the ratio between TC50 and EC50 values (SI = TC50/EC50).
# (§2) Surviving cells were allowed to recover in drug-free medium for 3–5 d to near confluence (round 1). The selection/recovery cycle were repeated once (round 2). […] Finally, all cells were cultured at the final selection concentrations of PTX or NTZ for ≥7 d, followed by culture in drug-free medium for 14 d. At this time point, cells were used for cytotoxicity and efficacy assays or cryopreserved in a liquid nitrogen tank. The resulting cell lines after PTX or NTZ selection were designated as WT(PTX), NC(PTX) and MDR1(PTX), or WT(NTZ), NC(NTZ) and MDR1(NTZ), respectively (Tables 1 and S2).
# HCT-8/WT(NTZ) cells = assay: MTS cytotoxicity (drug tolerance) assay
# Protocol: as §1, §2
# HCT-8/NC cells [2] = assay: MTS cytotoxicity (drug tolerance) assay; conditions: no drug selection
# HCT-8/WT(PTX) cells = assay: MTS cytotoxicity (drug tolerance) assay
# Protocol: as §1
# (§3) Surviving cells were allowed to recover in drug-free medium for 3–5 d to near confluence (round 1). The selection/recovery cycle were repeated once (round 2). […] The resulting cell lines after PTX or NTZ selection were designated as WT(PTX), NC(PTX) and MDR1(PTX), or WT(NTZ), NC(NTZ) and MDR1(NTZ), respectively (Tables 1 and S2).
# HCT-8/WT cells = assay: MTS cytotoxicity (drug tolerance) assay; conditions: for TC50: WT cells, no drug selection, MTS assay
# Protocol: as §1
# Cryptosporidium parvum = assay: Anti-cryptosporidial efficacy assay (44-h infection/qRT-PCR); conditions: for EC50: Cryptosporidium parvum; for On-target (Eon) rate at EC50 / On-target rate at EC50: Eq 2; for Action on parasite target (on-target) conclusion: MDR1-transgenic host cell model; for Eoff, proportion of off-parasite-target effect / Eon, proportion of on-parasite-target effect: Eq 3 and 4
# HCT-8/NC cells [3] = conditions: human, 41 h
# HCT-8/MDR1(NTZ) cells = assay: MTS cytotoxicity (drug tolerance) assay
# Protocol: as §1, §3
# HCT-8/NC(PTX) cells = assay: MTS cytotoxicity (drug tolerance) assay
# Protocol: as §1, §3
# HCT-8/MDR1(PTX) cells = conditions: for TC50: MDR1(PTX) cells; for Pct change of TC50 (vs NC): MDR1(PTX) vs NC cells
# Protocol: as §1, §3
# HCT-8/MDR1 cells [4] = conditions: human, 41 h
# [5] = NC(NTZ) cells, after selection by NTZ
# [6] = WT(NTZ) cells, after selection by NTZ
# [7] = WT(PTX) cells, after selection by PTX
# [8] = MDR1, read-out: Antiparasitic efficacy (EC50), C. parvum cultured in MDR1(PTX) host cells
# [9] = read-out: Antiparasitic efficacy (EC50), C. parvum cultured in NC host cells
# [10] = read-out: Antiparasitic efficacy (EC50), C. parvum cultured in WT host cells
# [11] = at EC10, MDR1(PTX) vs. NC model
# [12] = at EC20, MDR1(PTX) vs. NC model
# [13] = at EC30, MDR1(PTX) vs. NC model
# [14] = at EC40, MDR1(PTX) vs. NC model
# [15] = at EC50, MDR1(PTX) vs. NC model
# [16] = at EC60, MDR1(PTX) vs. NC model
# [17] = at EC70, MDR1(PTX) vs. NC model
# [18] = at EC80, MDR1(PTX) vs. NC model
# [19] = at EC90, MDR1(PTX) vs. NC model
# [20] = after selection by NTZ vs parent cell line
# [21] = after selection by PTX vs parent cell line
# [22] = at EC10, MDR1(NTZ) vs. NC model
# [23] = at EC20, MDR1(NTZ) vs. NC model
# [24] = at EC30, MDR1(NTZ) vs. NC model
# [25] = at EC40, MDR1(NTZ) vs. NC model
# [26] = at EC50, MDR1(NTZ) vs. NC model
# [27] = at EC60, MDR1(NTZ) vs. NC model
# [28] = at EC70, MDR1(NTZ) vs. NC model
# [29] = at EC80, MDR1(NTZ) vs. NC model
# [30] = at EC90, MDR1(NTZ) vs. NC model
compound,measurement,setting,value
"CN(C)C(=O)C(CCN1CCC(O)(c2ccc(Cl)cc2)CC1)(c1ccccc1)c1ccccc1 [Loperamide, Loperamide HCl]",TC50,HCT-8/MDR1 cells [1],16.49 µM
same,TC50,HCT-8/NC(NTZ) cells; [5],15.64 µM
same,TC50,HCT-8/WT(NTZ) cells; [6],16.23 µM
same,TC50,HCT-8/NC cells [2],16.08 µM
same,TC50,HCT-8/WT(PTX) cells; [7],16.42 µM
same,TC50,HCT-8/WT cells,15.96 µM
"O=C1c2c(O)ccc(O)c2C(=O)c2c(NCCNCCO)ccc(NCCNCCO)c21 [Mitoxantrone, Mitoxantrone 2HCl]",TC50,HCT-8/MDR1 cells [1],6.79 µM
same,Fold change of TC50 MDR1/NC,"HCT-8/MDR1 cells [1]; ratio of TC50, MDR1 vs NC cells",1.65
same,EC50,Cryptosporidium parvum; [8],4.16 µM
same,EC50,Cryptosporidium parvum; [9],2.04 µM
same,EC50,Cryptosporidium parvum; [10],2.07 µM
same,On-target (Eon) rate at EC50,Cryptosporidium parvum; MDR1(PTX) cell model,39.8%
same,On-target (Eon) rate at EC50,"Cryptosporidium parvum; MDR1(PTX) cell model, listed as MXT",39.8%
same,Off-target (Eoff) rate at EC50,"Cryptosporidium parvum; MDR1(PTX) cell model, from Pct changes of EC50 and TC50 (Eq 1)",60.2%
same,Action on parasite target (on-target) conclusion,Cryptosporidium parvum,partially on-target
same,Selectivity index (SI),Cryptosporidium parvum; TC50/EC50 in MDR1(PTX) cells,2.69
same,Selectivity index (SI),Cryptosporidium parvum; TC50/EC50 in NC cells,2.01
same,"Selectivity index (SI, k)",Cryptosporidium parvum; TC50/EC50 in WT cells,2.08
same,"Eoff, proportion of off-parasite-target effect",Cryptosporidium parvum; [11],39.80%
same,"Eon, proportion of on-parasite-target effect",Cryptosporidium parvum; [11],60.20%
same,"Eoff, proportion of off-parasite-target effect",Cryptosporidium parvum; [12],47.10%
same,"Eon, proportion of on-parasite-target effect",Cryptosporidium parvum; [12],52.90%
same,"Eoff, proportion of off-parasite-target effect",Cryptosporidium parvum; [13],52.00%
same,"Eon, proportion of on-parasite-target effect",Cryptosporidium parvum; [13],48.00%
same,"Eoff, proportion of off-parasite-target effect",Cryptosporidium parvum; [14],56.10%
same,"Eon, proportion of on-parasite-target effect",Cryptosporidium parvum; [14],43.90%
same,"Eoff, proportion of off-parasite-target effect",Cryptosporidium parvum; [15],60.0%
same,"Eon, proportion of on-parasite-target effect",Cryptosporidium parvum; [15],40.0%
same,"Eoff, proportion of off-parasite-target effect",Cryptosporidium parvum; [16],63.90%
same,"Eon, proportion of on-parasite-target effect",Cryptosporidium parvum; [16],36.10%
same,"Eoff, proportion of off-parasite-target effect",Cryptosporidium parvum; [17],68.20%
same,"Eon, proportion of on-parasite-target effect",Cryptosporidium parvum; [17],31.80%
same,"Eoff, proportion of off-parasite-target effect",Cryptosporidium parvum; [18],73.60%
same,"Eon, proportion of on-parasite-target effect",Cryptosporidium parvum; [18],26.40%
same,"Eoff, proportion of off-parasite-target effect",Cryptosporidium parvum; [19],81.90%
same,"Eon, proportion of on-parasite-target effect",Cryptosporidium parvum; [19],18.10%
same,Fold increase of TC50 NC(NTZ) vs. NC,HCT-8/NC(NTZ) cells; [20],1.02
same,TC50,"HCT-8/NC(NTZ) cells; human, 41 h",4.19 µM
same,Fold increase of TC50 WT(NTZ) vs. WT,HCT-8/WT(NTZ) cells; [20],0.96
same,TC50,"HCT-8/WT(NTZ) cells; human, 41 h",4.15 µM
same,TC50,HCT-8/NC cells [3],4.11 µM
same,TC50,"HCT-8/MDR1(NTZ) cells; MDR1(NTZ) cells, after selection by NTZ",6.74 µM
same,Fold increase of TC50 MDR1(NTZ) vs. NC,HCT-8/MDR1(NTZ) cells; after selection by NTZ,1.64
same,Fold increase of TC50 MDR1(NTZ) vs. MDR1,HCT-8/MDR1(NTZ) cells; [20],0.99
same,Fold change of TC50 WT(PTX) vs. WT,HCT-8/WT(PTX) cells; [21],0.98
same,TC50,"HCT-8/WT(PTX) cells; human, 41 h",4.23 µM
same,Fold change of TC50 NC(PTX) vs. NC,HCT-8/NC(PTX) cells; [21],1.06
same,TC50,"HCT-8/NC(PTX) cells; human, 41 h",4.34 µM
same,TC50,HCT-8/WT cells,4.31 µM
same,TC50,HCT-8/MDR1(PTX) cells; after selection by PTX,11.21 µM
same,Pct change of TC50 (vs NC),HCT-8/MDR1(PTX) cells,172.7%
same,Pct change of TC50 (vs NC),HCT-8/MDR1(PTX) cells; listed as MXT,172.7%
same,Fold change of TC50 MDR1(PTX) vs. NC,HCT-8/MDR1(PTX) cells; after selection by PTX,2.73
same,Fold change of TC50 MDR1(PTX) vs. MDR1,HCT-8/MDR1(PTX) cells; [21],1.65
same,Fold change of TC50 MDR1(PTX)/NC(PTX),HCT-8/MDR1(PTX) cells; ratio of TC50,2.58
CC(=O)Oc1ccccc1C(=O)Nc1ncc([N+](=O)[O-])s1 [Nitazoxanide],TC50,HCT-8/MDR1 cells [4],25.28 µM
same,EC50,"Cryptosporidium parvum; MDR1, read-out: Antiparasitic efficacy (EC50), C. parvum cultured in MDR1(NTZ) host cells",1.07 µM
same,EC50,Cryptosporidium parvum; [8],1.06 µM
same,EC50,Cryptosporidium parvum; [9],1.11 µM
same,EC50,Cryptosporidium parvum; [10],1.09 µM
same,Off-target rate at EC50,"Cryptosporidium parvum; MDR1(NTZ) cell model, Eq 1",-3.6%
same,On-target rate at EC50,Cryptosporidium parvum; MDR1(NTZ) cell model,103.6%
same,On-target rate at EC50,"Cryptosporidium parvum; MDR1(NTZ) cell model, listed as NTZ",103.6%
same,Action on parasite target (on-target) conclusion,Cryptosporidium parvum,100% on-target
same,"Eoff, proportion of off-parasite-target effect",Cryptosporidium parvum; [22],-7.90%
same,"Eon, proportion of on-parasite-target effect",Cryptosporidium parvum; [22],107.90%
same,"Eoff, proportion of off-parasite-target effect",Cryptosporidium parvum; [23],-6.10%
same,"Eon, proportion of on-parasite-target effect",Cryptosporidium parvum; [23],106.10%
same,"Eoff, proportion of off-parasite-target effect",Cryptosporidium parvum; [24],-5.10%
same,"Eon, proportion of on-parasite-target effect",Cryptosporidium parvum; [24],105.10%
same,"Eoff, proportion of off-parasite-target effect",Cryptosporidium parvum; [25],-4.30%
same,"Eon, proportion of on-parasite-target effect",Cryptosporidium parvum; [25],104.30%
same,"Eoff, proportion of off-parasite-target effect",Cryptosporidium parvum; [26],−3.6%
same,"Eon, proportion of on-parasite-target effect",Cryptosporidium parvum; [26],103.6%
same,"Eoff, proportion of off-parasite-target effect",Cryptosporidium parvum; [27],-2.90%
same,"Eon, proportion of on-parasite-target effect",Cryptosporidium parvum; [27],102.90%
same,"Eoff, proportion of off-parasite-target effect",Cryptosporidium parvum; [28],-2.30%
same,"Eon, proportion of on-parasite-target effect",Cryptosporidium parvum; [28],102.30%
same,"Eoff, proportion of off-parasite-target effect",Cryptosporidium parvum; [29],-1.50%
same,"Eon, proportion of on-parasite-target effect",Cryptosporidium parvum; [29],101.50%
same,"Eoff, proportion of off-parasite-target effect",Cryptosporidium parvum; [30],-0.50%
same,"Eon, proportion of on-parasite-target effect",Cryptosporidium parvum; [30],100.50%
same,TC50,HCT-8/NC(NTZ) cells; [5],39.09 µM
same,TC50,HCT-8/WT(NTZ) cells; [6],38.70 µM
same,TC50,HCT-8/NC cells [2],25.90 µM
same,Pct change of TC50 (vs NC),HCT-8/MDR1(NTZ) cells; MDR1(NTZ) vs NC cells,101.5%
same,TC50,"HCT-8/MDR1(NTZ) cells; human, 41 h",52.19 µM
same,TC50,HCT-8/WT(PTX) cells; [7],25.37 µM
same,TC50,"HCT-8/NC(PTX) cells; NC(PTX) cells, after selection by PTX",26.76 µM
same,TC50,HCT-8/WT cells,26.75 µM
same,Calculated cytotoxicity at EC50,"HCT-8/WT cells; percent inhibition of WT host cell growth at the EC50 concentration, calculated with Eq 5 from k and h",2.73%
same,TC50,HCT-8/MDR1(PTX) cells; after selection by PTX,25.59 µM

# — paper PMC10079235 (PLOS Neglected Tropical Diseases, 2023)
